Source: patent publication US20160145257A1, “SUBSTITUTED XANTHINES AND METHODS OF USE THEREOF” (Hydra Biosciences, Inc., priority 2013, published 2016)
Counter-ions that a name gives are not always drawn.

Target: T1, hTRPC5 (Homo sapiens, UniProt Q9UL62)
T1 construct: expressed in transfected cells; host or cells: HEK293 TREx cells with inducible TRPC5 expression
T1 sequence (Q9UL62 1-973): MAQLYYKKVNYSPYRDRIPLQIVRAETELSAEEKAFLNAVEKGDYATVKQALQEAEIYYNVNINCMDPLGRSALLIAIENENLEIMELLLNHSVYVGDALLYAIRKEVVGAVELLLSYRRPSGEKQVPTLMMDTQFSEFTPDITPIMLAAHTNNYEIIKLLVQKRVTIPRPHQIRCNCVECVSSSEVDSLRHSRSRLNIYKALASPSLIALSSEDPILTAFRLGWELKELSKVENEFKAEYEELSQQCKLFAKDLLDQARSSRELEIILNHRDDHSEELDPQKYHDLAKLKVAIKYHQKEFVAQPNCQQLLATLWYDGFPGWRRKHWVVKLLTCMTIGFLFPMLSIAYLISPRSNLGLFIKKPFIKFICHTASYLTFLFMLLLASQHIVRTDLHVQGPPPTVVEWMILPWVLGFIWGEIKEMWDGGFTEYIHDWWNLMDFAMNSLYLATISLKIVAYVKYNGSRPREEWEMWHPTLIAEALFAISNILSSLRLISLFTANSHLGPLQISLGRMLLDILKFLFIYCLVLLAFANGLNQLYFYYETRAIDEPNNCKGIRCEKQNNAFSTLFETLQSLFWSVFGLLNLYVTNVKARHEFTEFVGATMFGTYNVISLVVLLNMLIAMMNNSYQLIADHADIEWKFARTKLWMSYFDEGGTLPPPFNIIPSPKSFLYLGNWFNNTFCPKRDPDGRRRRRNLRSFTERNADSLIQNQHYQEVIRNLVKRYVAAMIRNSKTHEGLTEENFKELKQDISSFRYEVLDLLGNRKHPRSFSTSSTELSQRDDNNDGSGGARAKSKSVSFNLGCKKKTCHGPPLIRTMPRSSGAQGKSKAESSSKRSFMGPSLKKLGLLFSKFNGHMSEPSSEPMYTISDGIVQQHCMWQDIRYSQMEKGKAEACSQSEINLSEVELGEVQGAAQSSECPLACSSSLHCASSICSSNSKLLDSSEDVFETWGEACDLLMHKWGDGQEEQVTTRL
Assay: Whole-cell patch clamp, block of LaCl3-activated TRPC5 inward current
Assay type: cell-based
Conditions: TRPC5-expressing HEK293 TREx cells, 80 μM LaCl3, inward current, IC50 estimated from 5 μM and 500 nM, read-out: hTRPC5 Patch La3+ Inwd (nM) (All Batches)
Method in brief: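 Whole-cell recordings in induced TRPC5-expressing HEK293 TREx cells, holding −40 mV, 400 ms ramps −120 to +100 mV every 5 s; current activated by 80 μM external LaCl3 and 1,400 nM pipette free Ca2+ (pH 7.2 internal, 7.4 external). Inward block at −80 mV, with LaCl3 present; IC50 estimated from testing at 5 μM and 500 nM.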

CN(C)Cc1cccc(Oc2nc3c(c(=O)n(C)c(=O)n3C)n2Cc2ccc(Cl)cc2)c1 [Compound 164, 7-(4-Chlorobenzyl)-8-(3-((dimethylaminol)methyl)phenoxy)-1,3-dimethyl-1H-purine-2,6(3H,7H)-dione hydrochloride]
IC50: 2000 to 10000 nM

CCC(CO)NC(=O)C(C)Cc1nc2c(c(=O)n(C)c(=O)n2C)n1Cc1cccc(Br)c1 (stereo not shown) [Compound 165]
IC50: 2000 to 10000 nM

Cn1c(=O)c2c(nc(Oc3cccc(OC(F)(F)F)c3)n2Cc2cccc(OC(F)(F)F)c2)n(C)c1=O [Compound 166, 1,3-dimethyl-7-(3-(trifluoromethoxy)benzyl)-8-(3-(trifluoromethoxy)phenoxy)-1H-purine-2,6(3H,7H)-dione]
IC50: 100 to 500 nM

Cc1cccc(Cn2c(Oc3cccc(OC(F)(F)F)c3)nc3c2c(=O)n(C)c(=O)n3C)c1 [Compound 167, 1,3-dimethyl-7-(3-methylbenzyl)-8-(3-(trifluoromethoxy)phenoxy)-1H-purine-2,6(3H,7H)-dione]
IC50: < 100 nM

Cn1c(=O)c2c(nc(Oc3cccc(OC(F)(F)F)c3)n2Cc2cccc(Cl)c2)n(C)c1=O [Compound 168, 7-(3-chlorobenzyl)-1,3-dimethyl-8-(3-(trifluoromethoxy)phenoxy)-1H-purine-2,6(3H,7H)-dione]
IC50: 100 to 500 nM

CCc1coc(CSc2nc3c(c(=O)n(C)c(=O)n3C)n2Cc2ccc(C#N)cc2)n1 [Compound 169, 4-((8-((4-ethyloxazol-2-yl)methylthio)-1,3-dimethyl-2,6-dioxo-2,3-dihydro-1H-purin-7(6H)-yl)methyl)benzonitrile]
IC50: 1000 to 2000 nM

CCc1coc(CSc2nc3c(c(=O)n(C)c(=O)n3C)n2Cc2cccc(C#N)c2)n1 [Compound 170, 3-((8-((4-ethyloxazol-2-yl)methylthio)-1,3-dimethyl-2,6-dioxo-2,3-dihydro-1H-purin-7(6H)-yl)methyl)benzonitrile]
IC50: 2000 to 10000 nM

COc1cccc(Cn2c(Oc3ccc(-c4ccccc4)nc3)nc3c2c(=O)n(C)c(=O)n3C)c1 [Compound 171]
IC50: 2000 to 10000 nM

Cn1c(=O)c2c(nc(Nc3cccc(C(F)(F)F)c3)n2Cc2cccc(Br)c2)n(C)c1=O [Compound 172]
IC50: 2000 to 10000 nM

CCCC(O)c1cccc(Oc2nc3c(c(=O)n(C)c(=O)n3C)n2Cc2cccc(Br)c2)c1 (stereo not shown) [Compound 173, 7-(3-bromobenzyl)-8-(3-(1-hydroxybutyl)phenoxy)-1,3-dimethyl-1H-purine-2,6(3H,7H)-dione]
IC50: 2000 to 10000 nM

CCCCc1cccc(Oc2nc3c(c(=O)n(C)c(=O)n3C)n2Cc2cccc(Br)c2)c1 [Compound 174, 7-(3-bromobenzyl)-8-(3-butylphenoxy)-1,3-dimethyl-1H-purine-2,6(3H,7H)-dione]
IC50: 2000 to 10000 nM

Cc1ccc(Cn2c(Oc3cccc(OC(F)(F)F)c3)nc3c2c(=O)n(C)c(=O)n3C)cc1 [Compound 178, 1,3-dimethyl-7-(4-methylbenzyl)-8-(3-(trifluoromethoxy)phenoxy)-1H-purine-2,6(3H,7H)-dione]
IC50: 100 to 500 nM

Cn1c(=O)c2c(nc(Oc3cccc(C(F)(F)F)c3)n2Cc2cccc3ccccc23)n(C)c1=O [Compound 179, 1,3-dimethyl-7-(naphthalen-1-ylmethyl)-8-(3-(trifluoromethyl)phenoxy)-1H-purine-2,6(3H,7H)-dione]
IC50: 100 to 500 nM

CCc1coc(CSc2nc3c(c(=O)n(C)c(=O)n3C)n2Cc2cccc(C(C)=O)c2)n1 [Compound 180, 7-(3-acetylbenzyl)-8-((4-ethyloxazol-2-yl)methylthio)-1,3-dimethyl-1H-purine-2,6(3H,7H)-dione]
IC50: 2000 to 10000 nM

CCc1coc(CSc2nc3c(c(=O)n(C)c(=O)n3C)n2Cc2ccc(C(C)=O)cc2)n1 [Compound 181, 7-(4-acetylbenzyl)-8-((4-ethyloxazol-2-yl)methylthio)-1,3-dimethyl-1H-purine-2,6(3H,7H)-dione]
IC50: 2000 to 10000 nM

CN(C)Cc1cccc(Cn2c(Oc3cccc(OC(F)(F)F)c3)nc3c2c(=O)n(C)c(=O)n3C)c1 [Compound 183]
IC50: 2000 to 10000 nM
